Where two headings read alike, the source gives them in different places. One block for each molecule: values may come before it.
What was measured:
[1] = for Kd: 0.02 m tris buffer
Protocol: After sonication and mixing by vortex mixer, the phenytoin-suspended solutions were placed in a shaking, temperature controlled water bath for at least 5 days at 25° C. After equilibration, checked by periodic sampling, the suspensions were filtered through a membrane filter (Acrodisc, PVDF 0.2 μm, Gelman). The filtrate was isolated and diluted with HPLC mobile phase and the concentration of phenytoin was determined by HPLC. This work was performed in duplicate.
This phenomena is illustrated in Scheme (2). The binding constant for the phenytoin/(SBE)7m-β-CD complex, K1 can be calculated by the slope and intercept of the data from FIG. 3 (absence of fosphenytoin) according to Eq 2 (Hiquchi, T and Connors K. A.) […]
K1 =Slope/Intercept(1-Slope) (2)
K2, the binding constant for the fosphenytoin/(SBE)7m-β-CD complex can be calculated according to Eq. 6 as follows; K1 =(St-So')/(St-(St-So'))(Lt-(St-so')-x)
K1 =Slope/So'(1-Slope-x/Lt) (3)
K2 =x/(St'-x)(Lt-(St-So')-x
=(x/Lt)/(St'-x)(1-Slope-x/Lt) (4) […]
x/Lt=1-Slope-Slope/K1 So' (5)
Eq. 4 and Eq. 5 lead to Eqs. 6 and 7, K2 =(1/(St'-x))K1 So'/Slope-So'K1 -1) (6)
≈(1/St')(K1 So'/Slope-So'K1 -1) (7) where various terms are defined in Scheme (2). The term, St'-x, in Eq. 6 represents the free fraction of fosphenytoin in the presence of CD and theoretically should change with increasing CD concentration.

[2] = 25° C.
Description: Two different shelf-life criteria were considered; time to exceed phenytoin solubility in the presence and absence of (SBE)7m-β-CD and 0.5% phenytoin production.

[3] = pH values >8.0; cited from earlier work
[4] = high pH 8.5 formulation, refrigeration; cited from earlier work
[5] = Arrhenius plot for phenytoin production rate from fosphenytoin; assay type: physicochemical
Description: These values are higher than those reported previously; 30.8 kcal/mol and also are higher than Ea values reported from most other drug degradation studies (10-30 kcal/mol) (Yoshioka, S. Stability of Drugs and Dosage Forms, Nankodo Co. Ltd., Tokyo, 1995; pp.30-67). One possible explanation for the difference may be the effect of temperature on the pH of tris buffer solutions. […] Consequently, the change of phenytoin production rate can attribute not only to the direct effect of temperature on the kinetics but also the effect of temperature on pH. Since our principal goal was to study the effect of temperature on the stability of some protype formulations, buffer pH values were not adjusted at each temperature.

[6] = literature value; cited from earlier work
[7] = cited from earlier work
[8] = Phenytoin solubility in absence and presence of fosphenytoin and (SBE)7m-β-CD; assay type: physicochemical; conditions: 0.02 m tris buffer
Protocol: This work was performed in duplicate.
The fosphenytoin concentration of 80.6 mg/ml (75 mg/ml anhydrous fosphenytoin) was the same as the commercial product. […] The solubility of phenytoin is elevated in the presence of fosphenytoin probably through micellar or complex formation (Anderson et al. J. Pharm. Sci. 74 375-381; Muller et al. Int. J. Pharm. 75 201-209, 1991).

[9] = AHFS Drug Information; cited from earlier work

Kd ([1]; pH 7.4): 25.6 mM
Kd ([1]; pH 8): 29.4 mM
Time without phenytoin precipitation ([2]; 60 mM (SBE)7m-β-CD, either pH): over two years
Physically stable formulations, shelf-life ([2]; pH range 7.4-8.0): greater than two years
Time without phenytoin precipitation ([2]; pH 8.0, 60 mM (SBE)7m-β-CD): at least 17 years
Shelf-life by 0.5% phenytoin production criterion ([2]; with (SBE)7m-β-CD): greater than two year
Ea (apparent activation energy), phenytoin production ([5]; pH 7.4): 38.9 kcal/mol
Ea (apparent activation energy), phenytoin production ([5]; pH 8.0): 39.5 kcal/mol
Kinetics of phenytoin production (0.02M tris, 60° C., pH 7.4 and 8.0): apparent zero-order kinetics
Kinetics of phenytoin production (all temperatures, CD concentrations and both pH values): pseudo zero-order kinetics
Rate of Phenytoin Production (pH 7.4, 25° C., 0 mM CD): 0.160 µg/mL/day
Rate of Phenytoin Production (pH 7.4, 25° C., 60 mM CD): 0.133 µg/mL/day
Rate of Phenytoin Production (pH 7.4, 37° C., 60 mM CD): 0.993 µg/mL/day
Rate of Phenytoin Production (pH 7.4, 50° C., 60 mM CD): 21.37 µg/mL/day
Rate of Phenytoin Production (pH 7.4, 60° C., 0 mM CD): 111.8 µg/mL/day
Rate of Phenytoin Production (pH 8.0, 25° C., 0 mM CD): 0.083 µg/mL/day
Rate of Phenytoin Production (pH 8.0, 25° C., 30 mM CD): 0.088 µg/mL/day
Rate of Phenytoin Production (pH 8.0, 25° C., 60 mM CD): 0.075 µg/mL/day
Rate of Phenytoin Production (pH 8.0, 37° C., 0 mM CD): 0.634 µg/mL/day
Rate of Phenytoin Production (pH 8.0, 37° C., 30 mM CD): 0.600 µg/mL/day
Rate of Phenytoin Production (pH 8.0, 37° C., 60 mM CD): 0.562 µg/mL/day
Rate of Phenytoin Production (pH 8.0, 50° C., 30 mM CD): 14.43 µg/mL/day
Rate of Phenytoin Production (pH 8.0, 50° C., 60 mM CD): 13.82 µg/mL/day
Rate of Phenytoin Production (pH 8.0, 60° C., 0 mM CD): 67.20 µg/mL/day
SMILES: O=C1NC(c2ccccc2)(c2ccccc2)C(=O)N1COP(=O)(O)O [fosphenytoin]
Stability at higher pH [3]: more unstable
Shelf-life of the prodrug product [4]: two years
Ea reported previously [6]: 30.8 kcal/mol
Influence of (SBE)7m-β-CD on phenytoin production rate (30 or 60 mM (SBE)7m-β-CD, fosphenytoin 80.6 mg/ml): did not appear to influence the phenytoin production rate although here was a very slight trend to greater stability with increasing (SBE)7m-β-CD concentration
Degradant peaks (phenytoin vs earlier eluting peak) (pH 7.4): phenytoin was the major degradant peak observed
Degradant peaks (phenytoin vs earlier eluting peak) (pH 8): this peak had an area comparable to that of phenytoin

SMILES: O=C1NC(=O)C(c2ccccc2)(c2ccccc2)N1 [phenytoin]
Solubility ([7]; pH values <8): 20 to 25 µg/mL
Intrinsic aqueous solubility ([7]; phenytoin, background): less than 25 μg/ml
Kd ([1]; pH 7.4): 0.932 mM
Kd ([1]; pH 8): 1.26 mM
Type of phase solubility diagram ([1]; 25° C., pH 7.4 and 8.0, presence or absence of 80.6 mg/ml fosphenytoin): AL-type
Solubility enhancement in presence of fosphenytoin vs absence ([1]; (SBE)7m-β-CD, 25° C.): lower than that in the absence of fosphenytoin
solubility at 120 h ([8]; pH 7.4, aqueous buffer, pH 7.4, 0 mM (SBE)7m-β-CD, 25° C., read-out: Phenytoin Conc. (Solubility Criteria)): 49.8 µg/mL
solubility at 120 h ([8]; pH 7.4, aqueous buffer, pH 7.4, 60 mM (SBE)7m-β-CD, 25° C., read-out: Phenytoin Conc. (Solubility Criteria)): 451 µg/mL
solubility at 120 h ([8]; pH 7.4, aqueous buffer, pH 7.4, 25° C., absence of fosphenytoin, read-out: Solubility of phenytoin): 18.1 µg/mL
solubility at 120 h ([8]; pH 7.4, aqueous buffer, pH 7.4, 25° C., presence of fosphenytoin 80.6 mg/ml, read-out: Solubility of phenytoin): 49.8 µg/mL
solubility at 120 h ([8]; pH 8, aqueous buffer, pH 8.0, 0 mM (SBE)7m-β-CD, 25° C., read-out: Phenytoin Conc. (Solubility Criteria)): 61.9 µg/mL
solubility at 120 h ([8]; pH 8, aqueous buffer, pH 8.0, 30 mM (SBE)7m-β-CD, 25° C., read-out: Phenytoin Conc. (Solubility Criteria)): 274 µg/mL
solubility at 120 h ([8]; pH 8, aqueous buffer, pH 8.0, 60 mM (SBE)7m-β-CD, 25° C., read-out: Phenytoin Conc. (Solubility Criteria)): 476 µg/mL
solubility at 120 h ([8]; pH 8, aqueous buffer, pH 8.0, 25° C., presence of fosphenytoin 80.6 mg/ml, read-out: Solubility of phenytoin): 61.9 µg/mL
solubility at 120 h ([8]; pH 8, aqueous buffer, pH 8.0, 25° C., printed 'in the absence of phenytoin', read-out: Solubility of phenytoin): 27.5 µg/mL
pKa value [9]: 8.06-8.33
